Among the data in patent US20260193293A1, “PEPTIDES CAPABLE OF INHIBITING PROTEIN-PROTEIN INTERACTIONS AT GABAB1A SUBUNIT AND USES THEREOF” (UNIVERSITY OF COPENHAGEN, priority 2022, published 2026) are Ki values, retold here.

Non-standard residues stand in square brackets, D forms with d. Residues, ends and D or L forms follow the SMILES beside them. *: point of attachment. NMeT = CN[C@H](C(=O)O)[C@@H](C)O; NMeD = CN[C@@H](CC(=O)O)C(=O)O; NMeA = CN[C@@H](C)C(=O)O; Bn = c1ccc(C*)cc1; Sar = CNCC(=O)O

For one assay, the target named is Sushi domains (SD1/2) protein. Briefly: Fluorescence polarization (FP) competition assay with AJAP-1probe, calculated Ki. In kind it is binding. The note with it: Table 4, truncation and elongation scans of APP epitope; read-out: Ki (nM) mean ± SEM. How it is done:
Fluorescence polarization (FP). FP assay was employed to determine the binding affinity of peptides in flat bottom black 384-well plates (Corning Life Science) using a Safire2 plate reader (Tecan). All experiments were conducted in 1×PBS (pH 7.4) containing 1% bovine serum albumin (BSA) at rt. The fluorescence polarization values were measured using excitation/emission wavelengths of 530/580 nm. The instrumental Z-factor was adjusted to obtain the maximum fluorescence intensity and the G-factor was calibrated to give an initial millipolarization value of 20 mP. All FP assays including saturation or competition experiments were performed using 25 nM of TAMRA labeled peptides as probes. For saturation assay, the millipolarization values were measured after mixing of probes with 12 serial 1 to 1 diluted concentrations of Sushi domains (SD1/2) protein. All experiments were performed in triplicate and the data were plotted to the one-site binding model using GraphPad Prism 9 to calculate the Kd of probes. […] The experiments were performed at least in triplicate and the data were fitted to the sigmoidal dose response curve using GraphPad Prism 9 to obtain the IC50 of peptides. The Ki values were calculated according to Nikolovska-Coleska et al^310.
In the case of `CC(=O)N[C@@H](CCC(=O)O)C(=O)N[C@@H](CC(=O)O)C(=O)N[C@@H](CC(=O)O)C(=O)N[C@@H](CO)C(=O)N[C@@H](CC(=O)O)C(=O)N[C@H](C(=O)N[C@@H](Cc1c[nH]c2ccccc12)C(=O)N[C@@H](Cc1c[nH]c2ccccc12)C(=O)NCC(=O)NCC(=O)N[C@@H](C)C(=O)N[C@@H](CC(=O)O)C(=O)N[C@H](C(=O)N[C@@H](CC(=O)O)C(=O)N[C@@H](Cc1ccc(O)cc1)C(=O)N[C@@H](C)C(=O)N[C@@H](CC(=O)O)C(N)=O)[C@@H](C)O)C(C)C` (Ac-EDDSDVWWGGADTDYAD-NH2), the Ki was 281 ± 4 nM.

Still in this assay, the particulars now being: Table 7, Ala-, D-amino acids and N-methylation scans of APPWT; read-out: Ki (nM) mean ± SEM.
`CC(=O)N[C@@H](CCC(=O)O)C(=O)N[C@@H](CC(=O)O)C(=O)N[C@@H](CC(=O)O)C(=O)N[C@@H](CO)C(=O)N[C@@H](CC(=O)O)C(=O)N[C@H](C(=O)N[C@@H](Cc1c[nH]c2ccccc12)C(=O)N[C@@H](Cc1c[nH]c2ccccc12)C(=O)NCC(=O)NCC(=O)N[C@@H](C)C(=O)N[C@@H](C)C(=O)N[C@H](C(=O)N[C@@H](CC(=O)O)C(N)=O)[C@@H](C)O)C(C)C` (Ac-EDDSDVWWGGAATD-NH2): the Ki is 653 ± 25 nM.
Regarding `CC(=O)N[C@@H](CCC(=O)O)C(=O)N[C@@H](CC(=O)O)C(=O)N[C@@H](CC(=O)O)C(=O)N[C@@H](CO)C(=O)N[C@@H](CC(=O)O)C(=O)N[C@H](C(=O)N[C@@H](Cc1c[nH]c2ccccc12)C(=O)N[C@@H](Cc1c[nH]c2ccccc12)C(=O)NCC(=O)NCC(=O)N[C@@H](C)C(=O)N[C@@H](CC(=O)O)C(=O)N[C@@H](C)C(=O)N[C@@H](CC(=O)O)C(N)=O)C(C)C` (Ac-EDDSDVWWGGADAD-NH2), the Ki was 480 ± 8 nM.
In the case of `CC(=O)N[C@@H](CCC(=O)O)C(=O)N[C@@H](CC(=O)O)C(=O)N[C@@H](CC(=O)O)C(=O)N[C@@H](CO)C(=O)N[C@@H](CC(=O)O)C(=O)N[C@H](C(=O)N[C@@H](Cc1c[nH]c2ccccc12)C(=O)N[C@@H](Cc1c[nH]c2ccccc12)C(=O)NCC(=O)NCC(=O)N[C@@H](C)C(=O)N[C@@H](CC(=O)O)C(=O)N[C@H](C(=O)N[C@@H](C)C(N)=O)[C@@H](C)O)C(C)C` (Ac-EDDSDVWWGGADTA-NH2), the Ki was 786 ± 29 nM.
Turning to `CC(=O)N[C@@H](CCC(=O)O)C(=O)N[C@@H](CC(=O)O)C(=O)N[C@@H](CC(=O)O)C(=O)N[C@@H](CO)C(=O)N[C@@H](CC(=O)O)C(=O)N[C@H](C(=O)N[C@@H](Cc1c[nH]c2ccccc12)C(=O)N[C@@H](Cc1c[nH]c2ccccc12)C(=O)NCC(=O)NCC(=O)N[C@@H](C)C(=O)N[C@@H](CC(=O)O)C(=O)N[C@H](C(=O)N(C)[C@@H](CC(=O)O)C(N)=O)[C@@H](C)O)C(C)C` (Ac-EDDSDVWWGGADT[NMeD]-NH2), the Ki is 565 ± 23 nM.
Turning to `CC(=O)N[C@@H](CCC(=O)O)C(=O)N[C@@H](CC(=O)O)C(=O)N[C@@H](CC(=O)O)C(=O)N[C@@H](CO)C(=O)N[C@@H](CC(=O)O)C(=O)N[C@H](C(=O)N[C@@H](Cc1c[nH]c2ccccc12)C(=O)N[C@@H](Cc1c[nH]c2ccccc12)C(=O)NCC(=O)NCC(=O)N[C@@H](C)C(=O)N[C@@H](CC(=O)O)C(=O)N(C)[C@H](C(=O)N[C@@H](CC(=O)O)C(N)=O)[C@@H](C)O)C(C)C` (Ac-EDDSDVWWGGAD[NMeT]D-NH2), the Ki was 503 ± 13 nM.
For `CC(=O)N[C@@H](CCC(=O)O)C(=O)N[C@@H](CC(=O)O)C(=O)N[C@@H](CC(=O)O)C(=O)N[C@@H](CO)C(=O)N[C@@H](CC(=O)O)C(=O)N[C@H](C(=O)N[C@@H](Cc1c[nH]c2ccccc12)C(=O)N[C@@H](Cc1c[nH]c2ccccc12)C(=O)NCC(=O)NCC(=O)N[C@@H](C)C(=O)N(C)[C@@H](CC(=O)O)C(=O)N[C@H](C(=O)N[C@@H](CC(=O)O)C(N)=O)[C@@H](C)O)C(C)C` (Ac-EDDSDVWWGGA[NMeD]TD-NH2), the Ki was 403 ± 14 nM.
For the molecule `CC(=O)N[C@@H](CCC(=O)O)C(=O)N[C@@H](CC(=O)O)C(=O)N[C@@H](CC(=O)O)C(=O)N[C@@H](CO)C(=O)N[C@@H](CC(=O)O)C(=O)N[C@H](C(=O)N[C@@H](Cc1c[nH]c2ccccc12)C(=O)N[C@@H](Cc1c[nH]c2ccccc12)C(=O)NCC(=O)NCC(=O)N(C)[C@@H](C)C(=O)N[C@@H](CC(=O)O)C(=O)N[C@H](C(=O)N[C@@H](CC(=O)O)C(N)=O)[C@@H](C)O)C(C)C` (Ac-EDDSDVWWGG[NMeA]DTD-NH2), the Ki is 704 ± 11 nM.
As to `CC(=O)N[C@@H](CCC(=O)O)C(=O)N[C@@H](CC(=O)O)C(=O)N[C@@H](CC(=O)O)C(=O)N[C@@H](CO)C(=O)N[C@@H](CC(=O)O)C(=O)N[C@H](C(=O)N[C@@H](Cc1c[nH]c2ccccc12)C(=O)N[C@@H](Cc1c[nH]c2ccccc12)C(=O)NCC(=O)N(C)CC(=O)N[C@@H](C)C(=O)N[C@@H](CC(=O)O)C(=O)N[C@H](C(=O)N[C@@H](CC(=O)O)C(N)=O)[C@@H](C)O)C(C)C` (Ac-EDDSDVWWG[Sar]ADTD-NH2), the Ki was 161 ± 2 nM.

Still in this assay, the particulars now being: Table 10, deep mutational scanning validation variants of APPWT; read-out: Ki (nM) mean ± SEM.
With `CC(=O)N[C@@H](CCC(=O)O)C(=O)N[C@@H](CC(=O)O)C(=O)N[C@@H](CC(=O)O)C(=O)N[C@@H](CO)C(=O)N[C@@H](CC(=O)O)C(=O)N[C@H](C(=O)N[C@@H](Cc1c[nH]c2ccccc12)C(=O)N[C@@H](Cc1c[nH]c2ccccc12)C(=O)NCC(=O)NCC(=O)N[C@@H](C)C(=O)N[C@@H](CC(=O)O)C(=O)N[C@@H](Cc1c[nH]cn1)C(=O)N[C@@H](CC(=O)O)C(N)=O)C(C)C` (Ac-EDDSDVWWGGADHD-NH2), the Ki was 739 ± 9 nM.
The same measure, in the same setting: for `CC(=O)N[C@@H](CCC(=O)O)C(=O)N[C@@H](CC(=O)O)C(=O)N[C@@H](CC(=O)O)C(=O)N[C@@H](CO)C(=O)N[C@@H](CC(=O)O)C(=O)N[C@H](C(=O)N[C@@H](Cc1c[nH]c2ccccc12)C(=O)N[C@@H](Cc1c[nH]c2ccccc12)C(=O)NCC(=O)NCC(=O)N[C@@H](C)C(=O)N[C@@H](CC(=O)O)C(=O)N[C@@H](Cc1c[nH]c2ccccc12)C(=O)N[C@@H](CC(=O)O)C(N)=O)C(C)C` (Ac-EDDSDVWWGGADWD-NH2) the value was 459 ± 21 nM; for `CC(=O)N[C@@H](CCC(=O)O)C(=O)N[C@@H](CC(=O)O)C(=O)N[C@@H](CC(=O)O)C(=O)N[C@@H](CO)C(=O)N[C@@H](CC(=O)O)C(=O)N[C@H](C(=O)N[C@@H](Cc1c[nH]c2ccccc12)C(=O)N[C@@H](Cc1c[nH]c2ccccc12)C(=O)NCC(=O)NCC(=O)N[C@@H](Cc1c[nH]cn1)C(=O)N[C@@H](CC(=O)O)C(=O)N[C@H](C(=O)N[C@@H](CC(=O)O)C(N)=O)[C@@H](C)O)C(C)C` (Ac-EDDSDVWWGGHDTD-NH2), 346 ± 6 nM; for `CC(=O)N[C@@H](CCC(=O)O)C(=O)N[C@@H](CC(=O)O)C(=O)N[C@@H](CC(=O)O)C(=O)N[C@@H](CO)C(=O)N[C@@H](CC(=O)O)C(=O)N[C@H](C(=O)N[C@@H](Cc1c[nH]c2ccccc12)C(=O)N[C@@H](Cc1c[nH]c2ccccc12)C(=O)NCC(=O)NCC(=O)N[C@@H](CO)C(=O)N[C@@H](CC(=O)O)C(=O)N[C@H](C(=O)N[C@@H](CC(=O)O)C(N)=O)[C@@H](C)O)C(C)C` (Ac-EDDSDVWWGGSDTD-NH2), 204 ± 4 nM.
Still for that read-out and setting: for `CC(=O)N[C@@H](CCC(=O)O)C(=O)N[C@@H](CC(=O)O)C(=O)N[C@@H](CC(=O)O)C(=O)N[C@@H](CO)C(=O)N[C@@H](CC(=O)O)C(=O)N[C@H](C(=O)N[C@@H](Cc1c[nH]c2ccccc12)C(=O)N[C@@H](Cc1c[nH]c2ccccc12)C(=O)NCC(=O)NCC(=O)N[C@@H](Cc1ccc(O)cc1)C(=O)N[C@@H](CC(=O)O)C(=O)N[C@H](C(=O)N[C@@H](CC(=O)O)C(N)=O)[C@@H](C)O)C(C)C` (Ac-EDDSDVWWGGYDTD-NH2) the value was 255 ± 11 nM.
Turning to `CC(=O)N[C@@H](CCC(=O)O)C(=O)N[C@@H](CC(=O)O)C(=O)N[C@@H](CC(=O)O)C(=O)N[C@@H](CO)C(=O)N[C@@H](CC(=O)O)C(=O)N[C@H](C(=O)N[C@@H](Cc1c[nH]c2ccccc12)C(=O)N[C@@H](Cc1c[nH]c2ccccc12)C(=O)NCC(=O)N1CCC[C@H]1C(=O)N[C@@H](C)C(=O)N[C@@H](CC(=O)O)C(=O)N[C@H](C(=O)N[C@@H](CC(=O)O)C(N)=O)[C@@H](C)O)C(C)C` (Ac-EDDSDVWWGPADTD-NH2), the Ki is 332 ± 13 nM.
As for `CC(=O)N[C@@H](CCC(=O)O)C(=O)N[C@@H](CC(=O)O)C(=O)N[C@@H](CC(=O)O)C(=O)N[C@@H](CO)C(=O)N[C@@H](CC(=O)O)C(=O)N[C@H](C(=O)N[C@@H](Cc1c[nH]c2ccccc12)C(=O)N[C@@H](Cc1c[nH]c2ccccc12)C(=O)N[C@@H](Cc1c[nH]cn1)C(=O)NCC(=O)N[C@@H](C)C(=O)N[C@@H](CC(=O)O)C(=O)N[C@H](C(=O)N[C@@H](CC(=O)O)C(N)=O)[C@@H](C)O)C(C)C` (Ac-EDDSDVWWHGADTD-NH2), the Ki is 270 ± 4 nM.

The assay is the same for the next values; noted with them: Table 13, peptides for affinity maturation; read-out: Ki (nM) mean ± SEM.
Turning to `CC(=O)N[C@@H](CCC(=O)O)C(=O)N[C@@H](CC(=O)O)C(=O)N[C@@H](CC(=O)O)C(=O)N[C@@H](CO)C(=O)N[C@@H](CC(=O)O)C(=O)N[C@H](C(=O)N[C@@H](Cc1c[nH]c2ccccc12)C(=O)N[C@@H](Cc1c[nH]c2ccccc12)C(=O)NCC(=O)N(C)CC(=O)N[C@@H](C)C(=O)N[C@@H](CC(=O)O)C(=O)N[C@H](C(=O)N[C@@H](CC(=O)O)C(N)=O)[C@@H](C)O)C(C)C` (Ac-EDDSDVWWG[Sar]ADTD-NH2), the Ki was 161 ± 2 nM.

Staying with this assay, now noted: Table 16, ncAAs incorporated peptides; read-out: Ki (nM) mean ± SEM.
In the case of `CC(=O)N[C@@H](CCC(=O)O)C(=O)N[C@@H](CC(=O)O)C(=O)N[C@@H](CC(=O)O)C(=O)N[C@@H](CO)C(=O)N[C@@H](CC(=O)O)C(=O)N[C@H](C(=O)N[C@@H](Cc1c[nH]c2ccccc12)C(=O)N[C@@H](Cc1c[nH]c2ccccc12)C(=O)N[C@@H](Cc1ccc(OCc2ccccc2)cc1)C(=O)NCC(=O)N[C@@H](C)C(=O)N[C@@H](CC(=O)O)C(=O)N[C@H](C(=O)N[C@@H](CC(=O)O)C(N)=O)[C@@H](C)O)C(C)C` (Ac-EDDSDVWWY(Bn)GADTD-NH2), the Ki is 88 ± 4 nM.
